Assays:
[1] = tested on: strains of Pseudomonas organisms, e.g. strains of Pseudomonas aeruginosa; experiment: antibacterial activity against Pseudomonas strains; type: cell-based
[2] = tested on: strains of Staphylococcus aureus; experiment: antibacterial activity against Staphylococcus aureus; type: cell-based
[3] = effect of human serum on antibacterial properties; type: cell-based
[4] = effect of increased inocula; type: cell-based
[5] = serum half-life in primates; type: in vivo; conditions: extrapolated to man
[6] = distribution in the bodies of small rodents; type: in vivo
gram-negative bacteria = experiment: experimental infections in mice with gram-negative bacteria; type: in vivo
[7] = tested on: strains of Pseudomonas aeruginosa; experiment: protection of mice against strains of Pseudomonas aeruginosa; type: in vivo; conditions: for protection compared with treatment with an aminoglycoside such as amikacin: vs amikacin
[8] = administration of 500 mg/kg to mice (lethality); type: in vivo; conditions: for deaths: 500 mg/kg; for LD50: mouse, in vivo
[9] = tested on: wide range of commonly encountered pathogenic organisms; experiment: broad spectrum antibiotic activity; type: cell-based

Structure (SMILES): NC(=O)C[n+]1ccc(SCC2=C(C(=O)[O-])N3C(=O)[C@@H](NC(=O)/C(=N\OC4(C(=O)O)CCC4)c4csc(N)n4)[C@H]3SC2)cc1 [(6R,7R)-7-[(Z)-2-(2-Aminothiazol-4-yl)-2-(1-carboxycyclobut-1-oxyimino)acetamido]-3-[(1-carbamoylmethylpyridinium-4-yl)thiomethyl]ceph-3-em-4-carboxylate]
- activity against strains of Pseudomonas [1]: excellent activity
- activity against strains of Staphylococcus aureus [2]: useful activity
- antibacterial properties in human serum [3]: generally are not impaired by human serum
- effect of increased inocula against the compounds [4]: low
- probable half-life in man from serum half-life in primates [5]: comparatively long half-life in man
- distribution in the body [6]: well distributed
- therapeutic levels after subcutaneous injection [6]: useful therapeutic levels
- treatment of experimental infections with gram-negative bacteria (gram-negative bacteria): successfully treated
- protection against strains of Pseudomonas aeruginosa [7]: good protection
- protection compared with treatment with an aminoglycoside such as amikacin [7]: comparable with the treatment with an aminoglycoside such as amikacin
- deaths [8]: did not cause any deaths
- LD50 [8]: > 500 mg/kg
- general antibiotic properties [9]: to an outstanding extent

Structure (SMILES): CC(C)(O/N=C(\C(=O)N[C@@H]1C(=O)N2C(C(=O)[O-])=C(CSc3cc[n+](CC(N)=O)cc3)CS[C@H]12)c1csc(N)n1)C(=O)O [(6R,7R)-7-[(Z)-2-(2-Aminothiazol-4-yl)-2-(2-carboxyprop-2-oxyimino)acetamido] -3-[(1-carbamoylmethylpyridinium-4-yl)thiomethyl]ceph-3-em-4-carboxylate]
- activity against strains of Pseudomonas [1]: excellent activity
- activity against strains of Staphylococcus aureus [2]: useful activity
- antibacterial properties in human serum [3]: generally are not impaired by human serum
- effect of increased inocula against the compounds [4]: low
- probable half-life in man from serum half-life in primates [5]: comparatively long half-life in man
- distribution in the body [6]: well distributed
- therapeutic levels after subcutaneous injection [6]: useful therapeutic levels
- treatment of experimental infections with gram-negative bacteria (gram-negative bacteria): successfully treated
- protection against strains of Pseudomonas aeruginosa [7]: good protection
- protection compared with treatment with an aminoglycoside such as amikacin [7]: comparable with the treatment with an aminoglycoside such as amikacin
- deaths [8]: did not cause any deaths
- LD50 [8]: > 500 mg/kg
- general antibiotic properties [9]: to an outstanding extent

Reference: patent US4315005A, “Cephalosporin antibiotics” (Glaxo Group Limited, priority 1979, dated 1982)
